Source: publication PMC6894869, “Fragment-based design of small molecule PCSK9 inhibitors using simulated annealing of chemical potential simulations” (PLoS ONE, 2019)
pIC50: −log10 of the molar value.

Target: PCSK9 (Homo sapiens, UniProt Q8NBP7)
Assay: SPR competition assay against the EGFa domain of LDLR
Format: binding

pIC50: 3.99
Compound: COc1ccc2nc(N)[nH]c2c1C#N [Fig 12A, cyano-benzimidazole derivative]
